Experimental data published in the Kinase Knowledgebase extract (Sharma et al. 2016).
Several values for one entry are separate records, joined by “and”; a condition that tells them apart may be missing. Equal values may be shown once.

target: MAPK14 (human) (UniProt Q16539); assay: Cell-Based Assay; settings: thp1
Sequence (Q16539 whole entry, looked up): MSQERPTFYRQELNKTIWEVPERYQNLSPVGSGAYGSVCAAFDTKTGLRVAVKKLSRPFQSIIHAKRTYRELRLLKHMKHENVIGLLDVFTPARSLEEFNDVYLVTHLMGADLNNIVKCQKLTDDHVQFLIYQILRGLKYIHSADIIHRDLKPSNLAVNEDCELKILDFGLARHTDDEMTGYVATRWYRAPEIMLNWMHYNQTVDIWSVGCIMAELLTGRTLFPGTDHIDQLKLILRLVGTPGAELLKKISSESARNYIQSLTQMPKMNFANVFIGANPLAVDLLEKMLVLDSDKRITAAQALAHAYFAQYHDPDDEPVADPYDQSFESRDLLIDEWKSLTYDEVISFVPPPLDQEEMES

Going from Cc1cccc(-n2nc(C(C)(C)C)cc2NC(=O)Nc2ccccc2)c1 to COc1cccc(-n2nc(C(C)(C)C)cc2NC(=O)Nc2ccccc2)c1, the EC50 rises from 380 nM to 960 nM (2.5-fold).

Going from Cc1ccc(-n2nc(C(C)(C)C)cc2NC(=O)Nc2ccccc2)cc1C to Cc1ccc(-n2nc(C(C)(C)C)cc2NC(=O)Nc2ccccc2)cc1, the EC50 rises from 120 nM to 180 nM (1.5-fold).

Compared with CC(C)(C)c1cc(NC(=O)NCc2ccccc2)n(-c2ccccc2)n1, CC(C)(C)c1cc(NC(=O)NCCc2ccccc2)n(-c2ccccc2)n1 is 9.2-fold higher in EC50: 1200 nM for the first, 11000 nM for the second. The first is the more potent here.

CC(C)(C)c1cc(NC(=O)Nc2ccccc2)n(-c2ccncc2)n1 and CC(C)(C)c1cc(NC(=O)Nc2ccccc2)n(-c2ccccc2)n1 are within 1.5-fold of each other in EC50: 820 nM for the first, 730 nM for the second.

Going from CC(C)(C)c1cc(NC(=O)Nc2ccccc2)n(-c2ccc3ccccc3c2)n1 to CC(C)(C)c1cc(NC(=O)Nc2ccc3ccccc3c2)n(-c2ccccc2)n1, the EC50 falls from 1900 nM to 700 nM (2.7-fold). The second is the more potent here.

Compared with COc1ccc(-n2nc(C(C)(C)C)cc2NC(=O)Nc2ccccc2)cc1, CC(C)(C)c1cc(NC(=O)Nc2ccccc2)n(-c2ccc(N)cc2)n1 is 2.5-fold lower in EC50: 1600 nM for the first, 630 nM for the second. The second is the more potent here.

Cc1ccc(-n2nc(C(C)(C)C)cc2NC(=O)Nc2cccc3ccccc23)cc1 and CC(C)(C)c1cc(NC(=O)Nc2cccc3ccccc23)n(-c2ccccc2)n1 are within 1.5-fold of each other in EC50: 370 nM for the first, 250 nM for the second.

First: CC(C)(C)c1cc(NC(=O)NC2CCc3ccccc32)n(-c2ccccc2)n1 (stereo not given)
Second: CC(C)(C)c1cc(NC(=O)NC2Cc3ccccc3C2)n(-c2ccccc2)n1
The EC50 of the first is 2.3-fold lower: 330 nM for the first, 770 nM for the second.

First: Cc1ccccc1-n1nc(C(C)(C)C)cc1NC(=O)Nc1ccccc1
Second: CC(C)(C)c1cc(NC(=O)Nc2cccc(N)c2)n(-c2ccccc2)n1
The EC50 of the first is 2.3-fold higher: 2300 nM for the first, 1000 nM for the second. The second is the more potent here.

First: CC(C)(C)c1cc(NC(=O)NC2CCCCC2)n(-c2ccccc2)n1
Second: Cc1cccc(NC(=O)Nc2cc(C(C)(C)C)nn2-c2ccccc2)c1C
The EC50 of the first is 8-fold higher: 3300 nM for the first, 410 nM for the second. The second is the more potent here.

Going from Cc1ccc(-n2nc(C(C)(C)C)cc2NC(=O)Nc2ccccc2F)cc1 to CC(C)(C)c1cc(NC(=O)Nc2ccc(Cl)cc2)n(-c2ccccc2)n1, the EC50 rises from 130 nM to 1000 nM (7.7-fold).

First: Cc1cccc(-n2nc(C(C)(C)C)cc2NC(=O)Nc2ccccc2)c1
Second: COc1cccc(-n2nc(C(C)(C)C)cc2NC(=O)Nc2ccccc2)c1
The Kd of the first is 9.5-fold lower: 2 nM for the first, 19 nM for the second. The first binds more tightly here.

First: CC1(c2cc(NC(=O)Nc3ccccc3)n(-c3ccccc3)n2)CCCCC1
Second: CC1(c2cc(NC(=O)Nc3ccccc3)n(-c3ccccc3)n2)CCOCC1
The Kd of the first is 13-fold lower: 22 nM for the first, 280 nM for the second. The first binds more tightly here.

Going from CC(C)(C)c1cc(NC(=O)Nc2ccccc2)n(C2CCCCC2)n1 to CC(C)(C)c1cc(NC(=O)NC2CCCCC2)n(-c2ccccc2)n1, the Kd falls from 500 nM to 130 nM (3.8-fold).

First: CC(C)(C)c1cc(NC(=O)Nc2ccc(N)cc2)n(-c2ccccc2)n1
Second: CC(C)(C)c1cc(NC(=O)Nc2ccccc2)n(-c2ccc(N)cc2)n1
The Kd of the first is 45-fold higher: 318 nM for the first, 7 nM for the second.

First: Cc1ccc(-n2nc(C(C)(C)C)cc2NC(=O)Nc2ccccc2)cc1C
Second: Cc1ccccc1-n1nc(C(C)(C)C)cc1NC(=O)Nc1ccccc1
The Kd of the first is 50-fold lower: 4 nM for the first, 200 nM for the second. The first binds more tightly here.

Going from CC(C)(C)c1cc(NC(N)=O)n(-c2ccccc2)n1 to CC(C)(C)c1cc(NC(=O)Nc2cccc(N)c2)n(-c2ccccc2)n1, the Kd falls from greater than 7000 nM to 100 nM.

First: CC(C)(C)c1cc(NC(=O)NCc2ccccc2)n(-c2ccccc2)n1
Second: CC(C)(C)c1cc(NC(=O)NCCc2ccccc2)n(-c2ccccc2)n1
The Kd of the first is 5.5-fold lower: 47 nM for the first, 260 nM for the second. The first binds more tightly here.

Compared with CC(C)(C)c1cc(NC(=O)Nc2ccccc2)n(-c2ccncc2)n1, CC(C)(C)c1cc(NC(=O)Nc2ccncc2)n(-c2ccccc2)n1 is 57-fold higher in Kd: 21 nM for the first, 1200 nM for the second. The first binds more tightly here.

Compared with CC(C)(C)c1cc(NC(=O)Nc2ccccc2)n(-c2ccc3ccccc3c2)n1, CC(C)(C)c1cc(NC(=O)Nc2ccccc2)n(-c2ccccc2)n1 is 1.6-fold higher in Kd: 8 nM for the first, 13 nM for the second. The first binds more tightly here.

O=C(Nc1ccccc1)Nc1cc(C2CCCCC2)nn1-c1ccccc1 and Cc1cc(NC(=O)Nc2ccccc2)n(-c2ccccc2)n1 cannot be ordered by Kd: greater than 400 nM for the first, greater than 7000 nM for the second.

First: CCC(C)(C)c1cc(NC(=O)Nc2ccccc2)n(-c2ccccc2)n1
Second: COCC(C)(C)c1cc(NC(=O)Nc2ccccc2)n(-c2ccccc2)n1
The Kd of the first is 120-fold lower: 12 nM for the first, 1400 nM for the second.

Going from COc1ccc(-n2nc(C(C)(C)C)cc2NC(=O)Nc2ccccc2)cc1 to CC(C)(C)c1cc(NC(=O)Nc2ccc(Cl)cc2)n(-c2ccccc2)n1, the Kd falls from 31 nM to 8 nM (3.9-fold).

Going from CC(C)(C)c1cc(NC(=S)Nc2ccc(Cl)cc2)n(-c2ccccc2)n1 to CC(C)(C)c1cc(NC(=O)Cc2ccc(Cl)cc2)n(-c2ccccc2)n1, the Kd rises from 530 nM to greater than 900 nM.

First: CC(C)(C)c1cc(NC(=O)NC2CCc3ccccc32)n(-c2ccccc2)n1 (stereo not given)
Second: CC(C)(C)c1cc(NC(=O)NC2Cc3ccccc3C2)n(-c2ccccc2)n1
The Kd of the first is 4.7-fold lower: 3 nM for the first, 14 nM for the second. The first binds more tightly here.

Compared with CC(C)(c1ccccc1)c1cc(NC(=O)Nc2ccccc2)n(-c2ccccc2)n1, CC(C)c1cc(NC(=O)Nc2ccccc2)n(-c2ccccc2)n1 is 2.3-fold lower in Kd: 760 nM for the first, 330 nM for the second.

CN(C(=O)Nc1cc(C(C)(C)C)nn1-c1ccccc1)c1ccc(Cl)cc1 and CN(C(=O)Nc1ccc(Cl)cc1)c1cc(C(C)(C)C)nn1-c1ccccc1 cannot be ordered by Kd: 7500 nM for the first, greater than 1000 nM for the second.

First: CC(C)(C)c1cc(NC(=O)Nc2cccc3ccccc23)n(-c2ccccc2)n1
Second: Cc1cccc(NC(=O)Nc2cc(C(C)(C)C)nn2-c2ccccc2)c1C
The Kd of the first is 1.7-fold higher: 5 nM for the first, 3 nM for the second.

CC(C)(C)c1cc(NC(=O)Nc2cccnc2)n(-c2ccccc2)n1 and CC(C)(C)c1cc(NC(=O)Nc2ccccn2)n(-c2ccccc2)n1 are within 1.5-fold of each other in Kd: 420 nM for the first, 400 nM for the second.

Compared with CC(C)(C)c1cc(CC(=O)Nc2ccc(Cl)cc2)n(-c2ccccc2)n1, Cc1ccc(-n2nc(C(C)(C)C)cc2NC(=O)Nc2ccccc2F)cc1 is 110-fold lower in Kd: 1500 nM for the first, 14 nM for the second. The second binds more tightly here.

Going from CC(C)(C)c1cc(NC(=O)Nc2ccccc2)n(-c2ccccc2)n1 to Cc1ccc(-n2nc(C(C)(C)C)cc2NC(=O)Nc2ccccc2)cc1, the Cp rises from 0.1 µg/mL to 11 µg/mL (110-fold).

Cc1ccc(-n2nc(C(C)(C)C)cc2NC(=O)Nc2ccccc2F)cc1 gave a Cp of 51 µg/mL.

In the case of Cc1ccc(-n2nc(C(C)(C)C)cc2NC(=O)Nc2ccccc2)cc1, the Kd is reported as 3 nM and 21 nM.

same assay, conditions: thp1, concentration not given here

Molecule Cc1ccc(-n2nc(C(C)(C)C)cc2NC(=O)Nc2ccccc2F)cc1 has an inhibition of 53%.
